Results published in article PMC8500670, “A selective WDR5 degrader inhibits acute myeloid leukemia in patient-derived mouse models” (Science translational medicine, 2021).

How the values were obtained:
Assay in all cases: biochemical
Design in all cases: protein methyltransferase inhibition panel, single concentration, duplicate
SET7/9 = biological target: T1, SET7/9 (Homo sapiens, UniProt Q8WTS6)
T1 construct: gene SETD7
T1 sequence (Q8WTS6 1-366): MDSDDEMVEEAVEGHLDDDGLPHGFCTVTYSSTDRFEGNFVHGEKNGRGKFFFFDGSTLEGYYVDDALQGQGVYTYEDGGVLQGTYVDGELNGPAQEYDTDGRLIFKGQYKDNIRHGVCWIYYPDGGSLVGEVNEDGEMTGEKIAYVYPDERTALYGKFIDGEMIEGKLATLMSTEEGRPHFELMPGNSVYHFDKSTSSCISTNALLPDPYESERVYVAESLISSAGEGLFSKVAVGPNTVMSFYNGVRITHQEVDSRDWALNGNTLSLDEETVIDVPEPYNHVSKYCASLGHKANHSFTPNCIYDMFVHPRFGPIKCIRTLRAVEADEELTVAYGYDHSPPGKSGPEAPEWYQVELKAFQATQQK
Experimental: (§1) We next assessed selectivity of MS67 against 22 protein methyltransferases (table S2) and a broad panel of common drug targets including 45 kinases (table S3) and 44 G protein–coupled receptors (GPCR), ion channels, and transporters (table S4). […] We subsequently determined that MS67 had moderate binding affinity (Ki = 1.0 ± 0.8 μM) to Sigma 2 receptor (fig. S10).

PRMT6 = PRMT6 (Homo sapiens, UniProt Q96LA8)
Sequence of PRMT6 (Q96LA8 whole entry): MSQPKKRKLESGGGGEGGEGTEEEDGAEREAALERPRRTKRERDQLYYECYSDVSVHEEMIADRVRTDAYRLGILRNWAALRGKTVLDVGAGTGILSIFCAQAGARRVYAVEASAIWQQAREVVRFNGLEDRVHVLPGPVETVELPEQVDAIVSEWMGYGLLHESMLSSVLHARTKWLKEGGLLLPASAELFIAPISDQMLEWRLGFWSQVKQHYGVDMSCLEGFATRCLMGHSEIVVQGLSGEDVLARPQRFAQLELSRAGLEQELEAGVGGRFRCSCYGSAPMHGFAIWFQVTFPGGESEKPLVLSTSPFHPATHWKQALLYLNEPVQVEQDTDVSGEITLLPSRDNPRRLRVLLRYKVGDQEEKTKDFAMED
Experimental: as §1

PRMT8 = PRMT8 (Homo sapiens, UniProt Q9NR22)
Sequence of PRMT8 (Q9NR22 whole entry): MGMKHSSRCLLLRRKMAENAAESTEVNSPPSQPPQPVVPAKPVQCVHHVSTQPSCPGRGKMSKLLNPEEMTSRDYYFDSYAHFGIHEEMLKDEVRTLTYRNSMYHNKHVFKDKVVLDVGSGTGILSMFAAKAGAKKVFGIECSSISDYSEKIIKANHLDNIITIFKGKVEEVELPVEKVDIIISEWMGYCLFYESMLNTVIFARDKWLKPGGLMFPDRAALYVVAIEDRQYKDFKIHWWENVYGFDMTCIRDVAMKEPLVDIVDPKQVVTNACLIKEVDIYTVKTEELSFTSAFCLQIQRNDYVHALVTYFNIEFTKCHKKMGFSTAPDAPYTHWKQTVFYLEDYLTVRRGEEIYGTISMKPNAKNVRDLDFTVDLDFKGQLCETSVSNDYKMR
Experimental: as §1

SETD2 = SETD2 (Homo sapiens, UniProt Q9BYW2)
Sequence of SETD2 (Q9BYW2 whole entry): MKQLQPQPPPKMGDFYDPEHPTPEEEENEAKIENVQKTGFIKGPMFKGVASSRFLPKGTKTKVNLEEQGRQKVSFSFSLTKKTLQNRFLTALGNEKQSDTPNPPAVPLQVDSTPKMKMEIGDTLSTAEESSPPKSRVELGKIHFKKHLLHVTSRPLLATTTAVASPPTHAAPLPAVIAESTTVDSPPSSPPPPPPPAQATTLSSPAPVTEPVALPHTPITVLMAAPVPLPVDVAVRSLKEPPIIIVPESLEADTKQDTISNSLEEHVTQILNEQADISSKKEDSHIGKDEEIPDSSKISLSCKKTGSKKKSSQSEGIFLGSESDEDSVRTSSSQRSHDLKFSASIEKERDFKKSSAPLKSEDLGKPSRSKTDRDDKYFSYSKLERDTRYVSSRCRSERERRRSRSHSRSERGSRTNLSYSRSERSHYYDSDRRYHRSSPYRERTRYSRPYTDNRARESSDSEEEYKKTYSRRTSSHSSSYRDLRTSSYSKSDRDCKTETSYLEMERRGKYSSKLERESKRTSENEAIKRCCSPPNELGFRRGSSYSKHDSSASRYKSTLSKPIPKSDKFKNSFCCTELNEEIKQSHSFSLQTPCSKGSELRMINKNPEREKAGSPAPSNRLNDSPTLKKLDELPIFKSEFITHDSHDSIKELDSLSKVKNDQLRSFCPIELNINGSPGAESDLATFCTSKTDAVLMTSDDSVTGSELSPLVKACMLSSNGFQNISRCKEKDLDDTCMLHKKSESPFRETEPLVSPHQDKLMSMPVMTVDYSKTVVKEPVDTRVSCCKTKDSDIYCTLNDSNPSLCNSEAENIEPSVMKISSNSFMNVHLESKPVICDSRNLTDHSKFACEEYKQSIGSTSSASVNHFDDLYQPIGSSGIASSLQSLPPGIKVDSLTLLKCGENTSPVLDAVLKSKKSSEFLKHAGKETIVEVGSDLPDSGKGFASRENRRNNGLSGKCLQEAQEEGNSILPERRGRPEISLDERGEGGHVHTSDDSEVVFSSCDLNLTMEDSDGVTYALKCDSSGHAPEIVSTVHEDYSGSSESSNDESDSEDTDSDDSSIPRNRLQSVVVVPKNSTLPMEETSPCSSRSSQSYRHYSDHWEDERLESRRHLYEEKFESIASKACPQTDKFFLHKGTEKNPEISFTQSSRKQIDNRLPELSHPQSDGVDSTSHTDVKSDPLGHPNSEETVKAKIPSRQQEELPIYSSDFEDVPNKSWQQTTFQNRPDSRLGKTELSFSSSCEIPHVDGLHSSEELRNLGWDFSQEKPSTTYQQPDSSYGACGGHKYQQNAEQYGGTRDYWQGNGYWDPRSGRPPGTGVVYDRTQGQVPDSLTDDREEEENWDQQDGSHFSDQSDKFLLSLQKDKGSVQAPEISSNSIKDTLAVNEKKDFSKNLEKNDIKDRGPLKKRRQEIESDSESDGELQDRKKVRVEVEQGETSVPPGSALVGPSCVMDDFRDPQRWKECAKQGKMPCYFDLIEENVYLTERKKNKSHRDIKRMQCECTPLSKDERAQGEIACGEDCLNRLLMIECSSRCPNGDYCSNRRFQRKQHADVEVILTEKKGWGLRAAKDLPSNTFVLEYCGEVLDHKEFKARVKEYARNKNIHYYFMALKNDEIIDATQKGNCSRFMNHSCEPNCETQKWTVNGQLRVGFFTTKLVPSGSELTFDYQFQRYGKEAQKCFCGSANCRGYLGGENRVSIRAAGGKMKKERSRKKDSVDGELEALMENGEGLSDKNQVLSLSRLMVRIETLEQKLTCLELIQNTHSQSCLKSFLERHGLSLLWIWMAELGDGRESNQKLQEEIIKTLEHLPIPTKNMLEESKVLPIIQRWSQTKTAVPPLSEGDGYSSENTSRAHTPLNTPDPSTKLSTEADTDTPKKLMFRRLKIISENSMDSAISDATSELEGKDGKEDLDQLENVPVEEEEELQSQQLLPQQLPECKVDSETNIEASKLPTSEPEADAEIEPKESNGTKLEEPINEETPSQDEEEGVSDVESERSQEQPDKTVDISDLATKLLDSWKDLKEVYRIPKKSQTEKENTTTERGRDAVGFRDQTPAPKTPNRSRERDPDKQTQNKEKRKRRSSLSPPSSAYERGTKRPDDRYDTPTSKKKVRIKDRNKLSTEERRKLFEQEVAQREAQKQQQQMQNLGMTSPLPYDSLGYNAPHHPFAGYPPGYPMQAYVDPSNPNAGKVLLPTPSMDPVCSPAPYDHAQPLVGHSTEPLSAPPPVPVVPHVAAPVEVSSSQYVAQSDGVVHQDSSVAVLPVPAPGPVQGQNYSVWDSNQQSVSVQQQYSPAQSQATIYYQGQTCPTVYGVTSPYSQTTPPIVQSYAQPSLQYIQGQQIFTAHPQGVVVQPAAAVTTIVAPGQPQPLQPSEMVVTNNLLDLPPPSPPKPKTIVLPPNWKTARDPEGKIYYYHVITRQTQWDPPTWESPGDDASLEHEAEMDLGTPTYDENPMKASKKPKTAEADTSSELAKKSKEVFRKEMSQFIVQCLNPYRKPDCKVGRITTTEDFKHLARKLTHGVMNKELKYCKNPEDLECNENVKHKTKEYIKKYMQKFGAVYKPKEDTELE
Experimental: as §1

SMYD3 = biological target: T2, SMYD3 (Homo sapiens, UniProt Q9H7B4)
T2 sequence (Q9H7B4 1-428): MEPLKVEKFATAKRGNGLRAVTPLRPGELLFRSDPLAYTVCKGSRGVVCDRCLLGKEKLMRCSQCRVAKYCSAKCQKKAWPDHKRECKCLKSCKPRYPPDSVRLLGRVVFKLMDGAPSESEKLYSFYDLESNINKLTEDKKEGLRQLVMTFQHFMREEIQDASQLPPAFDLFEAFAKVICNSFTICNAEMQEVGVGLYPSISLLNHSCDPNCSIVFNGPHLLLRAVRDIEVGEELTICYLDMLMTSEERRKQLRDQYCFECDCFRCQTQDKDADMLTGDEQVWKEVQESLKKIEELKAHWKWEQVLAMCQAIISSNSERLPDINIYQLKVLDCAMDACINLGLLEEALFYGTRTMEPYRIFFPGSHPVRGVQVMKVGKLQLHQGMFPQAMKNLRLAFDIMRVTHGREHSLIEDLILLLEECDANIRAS
Experimental: as §1

PRMT4 = biological target: T3, PRMT4 (Homo sapiens, UniProt Q86X55)
T3 construct: gene CARM1
T3 sequence (Q86X55 1-608): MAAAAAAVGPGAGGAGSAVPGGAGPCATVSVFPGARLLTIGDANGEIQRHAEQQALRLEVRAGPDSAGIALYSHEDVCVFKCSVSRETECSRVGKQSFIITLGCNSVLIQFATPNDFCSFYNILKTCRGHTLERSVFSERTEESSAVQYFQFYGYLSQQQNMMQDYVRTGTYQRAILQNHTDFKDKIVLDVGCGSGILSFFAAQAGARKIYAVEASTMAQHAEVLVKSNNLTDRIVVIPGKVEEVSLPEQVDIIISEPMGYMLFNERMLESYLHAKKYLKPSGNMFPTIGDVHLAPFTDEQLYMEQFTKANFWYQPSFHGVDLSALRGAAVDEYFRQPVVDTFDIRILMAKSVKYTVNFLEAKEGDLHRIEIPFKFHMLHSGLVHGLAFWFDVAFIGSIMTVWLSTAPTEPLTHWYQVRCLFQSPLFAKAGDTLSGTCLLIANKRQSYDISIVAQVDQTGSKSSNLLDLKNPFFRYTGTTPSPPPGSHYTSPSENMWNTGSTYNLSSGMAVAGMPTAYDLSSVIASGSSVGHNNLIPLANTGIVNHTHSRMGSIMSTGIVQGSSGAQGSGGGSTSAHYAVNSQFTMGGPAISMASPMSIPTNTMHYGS
Experimental: as §1

DOT1L = DOT1L (Homo sapiens, UniProt Q8TEK3)
Experimental: as §1

NSD1 = NSD1 (Homo sapiens, UniProt Q96L73)
Experimental: as §1

SUV39H2 = SUV39H2 (Homo sapiens, UniProt Q9H5I1)
Sequence of SUV39H2 (Q9H5I1 whole entry): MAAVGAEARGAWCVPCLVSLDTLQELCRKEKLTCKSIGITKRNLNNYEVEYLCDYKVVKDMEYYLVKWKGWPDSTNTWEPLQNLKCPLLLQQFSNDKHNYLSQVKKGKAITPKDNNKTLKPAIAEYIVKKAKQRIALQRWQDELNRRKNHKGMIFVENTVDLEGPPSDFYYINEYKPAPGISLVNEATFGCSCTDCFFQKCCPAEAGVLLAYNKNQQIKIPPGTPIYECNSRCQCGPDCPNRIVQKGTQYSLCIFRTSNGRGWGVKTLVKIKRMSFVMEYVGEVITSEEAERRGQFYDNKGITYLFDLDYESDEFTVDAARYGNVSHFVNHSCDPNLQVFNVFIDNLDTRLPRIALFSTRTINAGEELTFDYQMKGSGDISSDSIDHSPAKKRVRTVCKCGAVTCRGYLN
Experimental: as §1

Measured: inhibition at 10 µM

Cc1ncsc1-c1ccc([C@H](C)NC(=O)[C@@H]2C[C@@H](O)CN2C(=O)[C@@H](NC(=O)CNC(=O)c2ccc(F)c(-c3ccc(N4C[C@@H](C)N(C)[C@@H](C)C4)c(NC(=O)c4c[nH]c(=O)cc4C(F)(F)F)c3)c2)C(C)(C)C)cc1 [MS67]
< 10%: SET7/9 | PRMT6 | PRMT8 | SETD2 | SMYD3 | PRMT4 | DOT1L | NSD1 | SUV39H2
